Numbers after ± are expanded uncertainties.
Conditions: 100 kPa, Liquid, Falling or rolling sphere viscometry

O [water]
Conditions | viscosity [mPa·s]
288.15 K | 1.122 ± 0.035
293.15 K | 0.99 ± 0.031
298.15 K | 0.882 ± 0.027
303.15 K | 0.793 ± 0.025
308.15 K | 0.719 ± 0.022
313.15 K | 0.656 ± 0.02
318.15 K | 0.602 ± 0.019

— the NIST ThermoML archive (doi:10.1021/acs.jced.8b01008)
